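Protocol summary: plate cells (96-well), add compound at 5 concentrations, incubate 48 h, interpolate endpoints linearly. Definition used: TGI = concentration required for complete inhibition of growth.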
How the values were obtained:
Test in all cases: inhibition of tumour cell growth, NCI panel, 48 h
786-0 renal = tested on: 786-0 renal
A498 renal = tested on: A498 renal
A549 NSCLC = tested on: A549 NSCLC
ACHN renal = tested on: ACHN renal
BT-549 breast = tested on: BT-549 breast
CAKI-1 renal = tested on: CAKI-1 renal
CCRF-CEM leukemia = tested on: CCRF-CEM leukemia
COLO 205 colon = tested on: COLO 205 colon
DU-145 prostate = tested on: DU-145 prostate
EKVX NSCLC = tested on: EKVX NSCLC
HCC-2998 colon = tested on: HCC-2998 colon
HCT-116 colon = tested on: HCT-116 colon
HCT-15 colon = tested on: HCT-15 colon
HL-60(TB) leukemia = tested on: HL-60(TB) leukemia
HOP-62 NSCLC = tested on: HOP-62 NSCLC
HOP-92 NSCLC = tested on: HOP-92 NSCLC
HS 578T breast = tested on: HS 578T breast
HT29 colon = tested on: HT29 colon
IGROV1 ovarian = tested on: IGROV1 ovarian
K-562 leukemia = tested on: K-562 leukemia
KM12 colon = tested on: KM12 colon
LOX IMVI melanoma = tested on: LOX IMVI melanoma
M14 melanoma = tested on: M14 melanoma
MALME-3M melanoma = tested on: MALME-3M melanoma
MCF7 breast = tested on: MCF7 breast
MDA-MB-231 breast = tested on: MDA-MB-231 breast
MDA-MB-435 = tested on: MDA-MB-435
MDA-N = tested on: MDA-N
MOLT-4 leukemia = tested on: MOLT-4 leukemia
NCI-H23 lung = tested on: NCI-H23 lung
NCI-H460 lung = tested on: NCI-H460 lung
NCI-H522 lung = tested on: NCI-H522 lung
NCI/ADR-RES ovarian = tested on: NCI/ADR-RES ovarian
OVCAR-3 ovarian = tested on: OVCAR-3 ovarian
OVCAR-5 ovarian = tested on: OVCAR-5 ovarian
OVCAR-8 ovarian = tested on: OVCAR-8 ovarian
PC-3 prostate = tested on: PC-3 prostate
RPMI-8226 leukemia = tested on: RPMI-8226 leukemia
RXF 393 renal = tested on: RXF 393 renal
SF-268 CNS = tested on: SF-268 CNS
SF-295 CNS = tested on: SF-295 CNS
SF-539 CNS = tested on: SF-539 CNS
SK-MEL-2 melanoma = tested on: SK-MEL-2 melanoma
SK-MEL-28 melanoma = tested on: SK-MEL-28 melanoma
SK-MEL-5 melanoma = tested on: SK-MEL-5 melanoma
SK-OV-3 ovarian = tested on: SK-OV-3 ovarian
SN12C renal = tested on: SN12C renal
SNB-19 CNS = tested on: SNB-19 CNS
SNB-75 CNS = tested on: SNB-75 CNS
SR leukemia = tested on: SR leukemia
SW-620 colon = tested on: SW-620 colon
T-47D breast = tested on: T-47D breast
TK-10 renal = tested on: TK-10 renal
U251 CNS = tested on: U251 CNS
UACC-257 melanoma = tested on: UACC-257 melanoma
UACC-62 melanoma = tested on: UACC-62 melanoma
UO-31 renal = tested on: UO-31 renal
NCI-H226 lung = tested on: NCI-H226 lung
OVCAR-4 ovarian = tested on: OVCAR-4 ovarian

SMILES: Cc1cn2c(/C=C3/C(=O)Nc4ccccc43)c(-c3ccccc3)nc2s1
- TGI (786-0 renal): 42.4 µM
- TGI (A498 renal): > 100 µM
- TGI (A549 NSCLC): > 100 µM
- TGI (ACHN renal): > 100 µM
- TGI (BT-549 breast): > 100 µM
- TGI (CAKI-1 renal): > 100 µM
- TGI (CCRF-CEM leukemia): > 100 µM
- TGI (COLO 205 colon): > 100 µM
- TGI (DU-145 prostate): > 100 µM
- TGI (EKVX NSCLC): > 100 µM
- TGI (HCC-2998 colon): > 100 µM
- TGI (HCT-116 colon): > 100 µM
- TGI (HCT-15 colon): > 100 µM
- TGI (HL-60(TB) leukemia): > 100 µM
- TGI (HOP-62 NSCLC): > 100 µM
- TGI (HOP-92 NSCLC): > 100 µM
- TGI (HS 578T breast): 91 µM
- TGI (HT29 colon): > 100 µM
- TGI (IGROV1 ovarian): > 100 µM
- TGI (K-562 leukemia): > 100 µM
- TGI (KM12 colon): > 100 µM
- TGI (LOX IMVI melanoma): > 100 µM
- TGI (M14 melanoma): > 100 µM
- TGI (MALME-3M melanoma): > 100 µM
- TGI (MCF7 breast): > 100 µM
- TGI (MDA-MB-231 breast): 57.7 µM
- TGI (MDA-MB-435): > 100 µM
- TGI (MDA-N): > 100 µM
- TGI (MOLT-4 leukemia): > 100 µM
- TGI (NCI-H23 lung): > 100 µM
- TGI (NCI-H460 lung): > 100 µM
- TGI (NCI-H522 lung): > 100 µM
- TGI (NCI/ADR-RES ovarian): > 100 µM
- TGI (OVCAR-3 ovarian): > 100 µM
- TGI (OVCAR-5 ovarian): > 100 µM
- TGI (OVCAR-8 ovarian): > 100 µM
- TGI (PC-3 prostate): > 100 µM
- TGI (RPMI-8226 leukemia): > 100 µM
- TGI (RXF 393 renal): 55.2 µM
- TGI (SF-268 CNS): > 100 µM
- TGI (SF-295 CNS): > 100 µM
- TGI (SF-539 CNS): 41.7 µM
- TGI (SK-MEL-2 melanoma): 78.1 µM
- TGI (SK-MEL-28 melanoma): > 100 µM
- TGI (SK-MEL-5 melanoma): > 100 µM
- TGI (SK-OV-3 ovarian): 76.4 µM
- TGI (SN12C renal): > 100 µM
- TGI (SNB-19 CNS): 55.4 µM
- TGI (SNB-75 CNS): 66.8 µM
- TGI (SR leukemia): > 100 µM
- TGI (SW-620 colon): > 100 µM
- TGI (T-47D breast): > 100 µM
- TGI (TK-10 renal): 51.2 µM
- TGI (U251 CNS): > 100 µM
- TGI (UACC-257 melanoma): > 100 µM
- TGI (UACC-62 melanoma): > 100 µM
- TGI (UO-31 renal): 61.2 µM

SMILES: C[N+](C)(C)CCCCCc1c2nc(c(CCCCC[N+](C)(C)C)c3ccc([nH]3)c(CCCCC[N+](C)(C)C)c3ccc([nH]3)c(CCCCC[N+](C)(C)C)c3nc1C=C3)C=C2
- TGI (786-0 renal): > 100 µM
- TGI (A498 renal): > 100 µM
- TGI (A549 NSCLC): > 100 µM
- TGI (ACHN renal): > 100 µM
- TGI (BT-549 breast): > 100 µM
- TGI (CAKI-1 renal): > 100 µM
- TGI (CCRF-CEM leukemia): > 100 µM
- TGI (COLO 205 colon): > 100 µM
- TGI (DU-145 prostate): > 100 µM
- TGI (EKVX NSCLC): > 100 µM
- TGI (HCC-2998 colon): > 100 µM
- TGI (HCT-116 colon): > 100 µM
- TGI (HCT-15 colon): > 100 µM
- TGI (HL-60(TB) leukemia): > 100 µM
- TGI (HOP-62 NSCLC): > 100 µM
- TGI (HOP-92 NSCLC): > 100 µM
- TGI (HS 578T breast): > 100 µM
- TGI (HT29 colon): > 100 µM
- TGI (IGROV1 ovarian): > 100 µM
- TGI (K-562 leukemia): > 100 µM
- TGI (KM12 colon): > 100 µM
- TGI (LOX IMVI melanoma): > 100 µM
- TGI (M14 melanoma): > 100 µM
- TGI (MALME-3M melanoma): > 100 µM
- TGI (MCF7 breast): > 100 µM
- TGI (MDA-MB-231 breast): > 100 µM
- TGI (MDA-MB-435): > 100 µM
- TGI (MDA-N): > 100 µM
- TGI (MOLT-4 leukemia): > 100 µM
- TGI (NCI-H226 lung): > 100 µM
- TGI (NCI-H23 lung): > 100 µM
- TGI (NCI-H460 lung): > 100 µM
- TGI (NCI-H522 lung): > 100 µM
- TGI (NCI/ADR-RES ovarian): > 100 µM
- TGI (OVCAR-3 ovarian): > 100 µM
- TGI (OVCAR-4 ovarian): > 100 µM
- TGI (OVCAR-5 ovarian): > 100 µM
- TGI (OVCAR-8 ovarian): > 100 µM
- TGI (PC-3 prostate): > 100 µM
- TGI (RPMI-8226 leukemia): > 100 µM
- TGI (RXF 393 renal): 7.32 µM
- TGI (SF-268 CNS): > 100 µM
- TGI (SF-295 CNS): > 100 µM
- TGI (SF-539 CNS): > 100 µM
- TGI (SK-MEL-2 melanoma): > 100 µM
- TGI (SK-MEL-28 melanoma): > 100 µM
- TGI (SK-MEL-5 melanoma): > 100 µM
- TGI (SK-OV-3 ovarian): > 100 µM
- TGI (SN12C renal): > 100 µM
- TGI (SNB-19 CNS): > 100 µM
- TGI (SNB-75 CNS): > 100 µM
- TGI (SR leukemia): > 100 µM
- TGI (SW-620 colon): > 100 µM
- TGI (T-47D breast): > 100 µM
- TGI (TK-10 renal): > 100 µM
- TGI (U251 CNS): > 100 µM
- TGI (UACC-257 melanoma): > 100 µM
- TGI (UACC-62 melanoma): > 100 µM
- TGI (UO-31 renal): > 100 µM
